Source: publication PMC12040169 (PLOS Biology, 2025)

Assay: in vitro
Conditions: human, hela cells, % viability

Row | Structure (SMILES) | viability at 28.5 h, 10 µM
1 | CCOC(=O)Cn1c(-c2cccs2)cc2cccnc21 [CBK282267] | 95.2%
2 | COC(=O)Cn1c(-c2ccc(OC)cc2)cc2cccnc21 [CBK282268] | 82.7%
3 | Fc1ccc(CN2CC3CCCC(C2)C3N2CCOCC2)cc1F (stereo not shown) [CBK282270] | 95.8%
4 | Cn1ccnc1C1(O)CCN(C(=O)NC2CCCCC2)CC1 [CBK282275] | 91.8%
5 | Cn1ccnc1C1(O)CCN(C(=O)NCc2ccccc2)CC1 [CBK282276] | 94.9%
6 | Cn1ccnc1C1(O)CCN(C(=O)Nc2ccccc2F)CC1 [CBK282280] | 112%
7 | O=C(NCc1ccccc1)N1CCC(n2cnc3cccnc32)CC1 [CBK282281] | 100%
8 | c1cnc2[nH]c([C@H]3CCCO3)c(CN3CCCCC3)c2c1 [CBK282284] | 87.7%
9 | O=C(Cn1c([C@@H]2CCCO2)cc2cccnc21)N1CCCCC1 [CBK282286] | 90.3%
10 | c1cnc2c(c1)cc([C@H]1CCCO1)n2CCN1CCCC1 [CBK282289] | 91.9%
11 | CC(=O)Nc1ccc(CCC2(NC(=O)C3CC3)CCCCC2)cn1 [CBK282290] | 87.4%
12 | Cc1nc2cccnc2n1C1CCN(C(=O)NCc2ccccc2)CC1 [CBK282291] | 87.5%
13 | Cn1nc(-c2ccc(F)cc2)n(-c2ccncc2)c1=O [CBK282294] | 96.5%
14 | COc1ccc([C@@H](O)[C@H]2CCCNC2)cc1 [CBK282298] | 86.3%
15 | C[C@]12CN(Cc3ccccc3)C[C@H]1NC(=O)c1ccccc1C2O (stereo partly shown) [CBK282302] | 112%
16 | COCCCNC(=O)Cn1ccc2ccnc(-c3cccs3)c21 [CBK282303] | 109%
17 | CCC(=O)N1CCC[C@@H]1Cn1nc(-c2cccs2)ccc1=O [CBK282304] | 84.8%
18 | C[C@@H](Cn1nnc2ccccc21)NC(=O)Cc1cccc(F)c1 [CBK282306] | 90.8%
19 | Cc1[nH]ncc1C(=O)N1CCn2cc(C(F)(F)F)nc2C1 [CBK282307] | 87.7%
20 | C[C@@H](Cn1nnc2ccccc21)NC(=O)Cc1cccs1 [CBK282312] | 92.8%
21 | O=C1CCCN1CC(=O)N1CCCC1c1nc2ccccc2[nH]1 (stereo not shown) [CBK282315] | 86.3%
22 | Cc1ccc(CCC(=O)N2CCCCC2c2nc3ccccc3[nH]2)o1 (stereo not shown) [CBK282316] | 85.7%
23 | O=c1[nH]c(-c2ccccc2)nc2c1CN(Cc1ccc(F)cc1)CC2 [CBK282329] | 93.3%
24 | O=c1[nH]c(-c2ccccc2)nc2c1CN(Cc1cccs1)CC2 [CBK282330] | 87.1%

Row | Structure (SMILES) | viability at 28.5 h, 10 µM
25 | Cn1c(=O)n(Cc2ccc(Cl)cc2)c2cccnc21 [CBK282333] | 101%
26 | Cc1noc(C)c1C(=O)N1CCC(c2ccncc2)CC1 [CBK282334] | 110%
27 | CC(C)(C)C(=O)N1CCC(n2nc(-c3ccco3)ccc2=O)CC1 [CBK282341] | 99.3%
28 | CC(C)CC(=O)NCCn1nc(-c2cccs2)oc1=O [CBK282342] | 114%
29 | O=C(NCCn1nc(-c2cccs2)oc1=O)C1CCCCC1 [CBK282343] | 105%
30 | O=C(Cc1cccc(O)c1)N1CCCC1c1nc2ccccc2[nH]1 (stereo not shown) [CBK282346] | 91.9%
31 | CC1CCc2c(sc3ncn(C4CCNCC4)c(=O)c23)C1 (stereo not shown) [CBK282349] | 91.4%
32 | O=C(c1ccco1)N1CCC(n2nc(C3CC3)ccc2=O)CC1 [CBK282350] | 109%
33 | CCOCCCNC(=O)c1ncoc1-c1ccc(F)cc1 [CBK282353] | 92.6%
34 | Cc1cc(C)n(CCNC(=O)c2ncoc2-c2ccc(F)cc2)n1 [CBK282356] | 83.2%
35 | Cc1cc(C)n(CCCNC(=O)c2ncoc2-c2ccc(F)cc2)n1 [CBK282357] | 91.3%
36 | O=C(c1ncoc1-c1ccc(F)cc1)N1CCOCC1 [CBK282362] | 87.1%
37 | Fc1cccc(-c2nc3cnccn3c2NCc2cccs2)c1 [CBK282363] | 97.5%
38 | O=C1NC2=C(C(=O)N(CC3CCCO3)C2)C(c2cccc(F)c2)N1 (stereo not shown) [CBK282364] | 86.1%
39 | Cc1cc2nnn(C[C@@H](C)NC(=O)c3ccco3)c2cc1C [CBK282366] | 100%
40 | CC(=O)N1CCC(n2c(C3CC3)nc3sc(C)c(C)c3c2=O)CC1 [CBK282369] | 85.2%
41 | CC(C)c1ccc(C(=O)N2CCC(n3cnc4cccnc43)CC2)cc1 [CBK282370] | 82.3%
42 | CC(C)NC(=O)C1CCCN(c2nc3ccccc3n2C)C1 (stereo not shown) [CBK282373] | 109%
43 | O=C(C1CCCC1)N1CCCC1c1nc2ccccc2[nH]1 (stereo not shown) [CBK282378] | 88.5%
44 | O=C(c1ncoc1-c1ccc(F)cc1)N1CCSCC1 [CBK282380] | 105%
45 | Cc1cc2ccccc2n2c(=O)n(Cc3cscn3)nc12 [CBK282381] | 102%
46 | C#CCn1cc(CN2CCc3c(nc(C)[nH]c3=O)C2)c2ccccc21 [CBK282382] | 102%
47 | Cc1nc2c(c(=O)[nH]1)CCN(CCC(C)c1ccccc1)C2 (stereo not shown) [CBK282387] | 81%
48 | CC1CCCC(C)N1C(=O)Cn1c(=O)n(C)c2ncccc21 (stereo not shown) [CBK282389] | 107%

Row | Structure (SMILES) | viability at 28.5 h, 10 µM
49 | CCN(Cc1ccco1)C(=O)Cn1c(=O)n(C)c2ncccc21 [CBK282390] | 99.3%
50 | COc1cccc(Cn2c(=O)n(C)c3ncccc32)c1 [CBK282391] | 81.1%
51 | Cc1cc2c(o1)c1cnn(CC(=O)N(C(C)C)C(C)C)c(=O)c1n2C [CBK282392] | 83.2%
52 | COc1ccccc1CCNC(=O)c1ncoc1-c1cccs1 [CBK282394] | 76.4%
53 | O=C(c1ncoc1-c1ccc(F)cc1)N1CCN2CCCCC2C1 (stereo not shown) [CBK282400] | 96.2%
54 | CC(NC(=O)c1ncoc1-c1ccccc1F)c1ccccn1 (stereo not shown) [CBK282402] | 91.4%
55 | O=C(NCc1cccnc1)c1ncoc1-c1cccc(Cl)c1 [CBK282403] | 85.4%
56 | CC(=O)N1CCC(Cn2nc(-c3ccccc3)ccc2=O)CC1 [CBK282405] | 109%
57 | CC(=O)N1CCC(Cn2nc(-c3ccc(F)cc3)ccc2=O)CC1 [CBK282406] | 101%
58 | Cc1ccccc1-c1ocnc1C(=O)NCc1ccco1 [CBK282408] | 84.5%
59 | O=C(c1ccc(F)cc1)[C@H]1CCCN(C(=O)c2cc(C3CC3)n[nH]2)C1 [CBK282410] | 99.6%
60 | O=C(c1cccs1)[C@H]1CCCN(C(=O)c2cc(C3CC3)n[nH]2)C1 [CBK282411] | 85.3%
61 | Cn1ccc(C(=O)N2CCC[C@H](C(=O)c3cccs3)C2)n1 [CBK282412] | 98%
62 | Cc1sc2nc(C)n(C3CCN(C(=O)C(C)C)CC3)c(=O)c2c1C [CBK282414] | 88.7%
63 | Cc1nc2c(c(=O)[nH]1)CN(Cc1ccc(Cl)cc1)CC2 [CBK282415] | 84.5%
64 | O=C(Nc1ccccc1-n1ccnc1)c1ncoc1-c1ccc(F)cc1 [CBK282417] | 94.1%
65 | Cc1sc2nc(C)n(C3CCNCC3)c(=O)c2c1C [CBK282421] | 113%
66 | CC(C)C(=O)N1CCC(n2nc(-c3cccs3)oc2=O)CC1 [CBK282422] | 103%
67 | CC(C)(C)C(=O)N1CCC(n2nc(-c3cccs3)oc2=O)CC1 [CBK282423] | 88%
68 | C#CCNC(=O)C1CCCN(c2nc3ccccc3n2CC)C1 (stereo not shown) [CBK282433] | 90.5%
69 | CC(NC(=O)c1ncoc1-c1ccc2ccccc2c1)c1cccnc1 (stereo not shown) [CBK282441] | 94.2%
70 | CC(C)C(NC(=O)c1cccc(-n2cnnc2)c1)c1cccs1 (stereo not shown) [CBK282442] | 111%
71 | Cc1c(-c2ccccc2)n[nH]c1C(=O)NCCCc1ccccn1 [CBK282445] | 89%
72 | C=CCC1(CC=C)CCN1C(=O)c1cc(-c2ccccn2)n[nH]1 [CBK282448] | 106%

Row | Structure (SMILES) | viability at 28.5 h, 10 µM
73 | CC(C)NC(=O)Cn1c(-c2cccs2)cc2cccnc21 [CBK282454] | 97.3%
74 | CC(C)(C)NC(=O)Cn1c(-c2cccs2)cc2cccnc21 [CBK282455] | 97.1%
75 | CCCc1cc(C(=O)NC(c2ccccc2)c2cccnc2)[nH]n1 (stereo not shown) [CBK282462] | 93.8%
76 | CCC(=O)N1CCC2(CC1)CNC(=O)c1cc(C)ccc1O2 [CBK282468] | 85.2%
77 | Cc1ccc(C2(CN3CCN(Cc4cnc(C)n4C)CC3)CC2)cc1 [CBK282469] | 93.5%
78 | CCN1CCCC1CN(Cc1cnn(C)c1)Cc1ccco1 (stereo not shown) [CBK282470] | 96.6%
79 | Cc1nn(C)cc1CN(Cc1ccc(F)cc1)CC1CCCO1 (stereo not shown) [CBK282472] | 98.5%
80 | Cc1nc[nH]c1CN(CCCn1ccnc1)Cc1ccccc1Cl [CBK282473] | 103%
81 | CN1C(=O)C(CC(=O)NCCCc2ccc(F)cc2)c2ccccc21 (stereo not shown) [CBK282474] | 106%
82 | Cn1nc(C2CC2)cc1C(=O)NCCCN1CCCc2ccccc21 [CBK282476] | 90.7%
83 | Cc1nc2ccc(C(=O)NCCn3ccnc3C)cc2s1 [CBK282477] | 88.1%
84 | Cc1ccc(C2(CN3CCN(Cc4cnn(C)c4)CC3)CC2)cc1 [CBK282480] | 96.3%
85 | Cc1ccc(CN(CCCN(C)C)Cc2nc(C)n3ccccc23)o1 [CBK282482] | 106%
86 | Cc1ccc(C)c2c(C)c(C(=O)NCC[S+](C)[O-])[nH]c12 (stereo not shown) [CBK282484] | 76.5%
87 | Cc1[nH]c2c(C)cccc2c1CC(=O)NC1CCCN(C)C1 (stereo not shown) [CBK282485] | 74.1%
88 | Cc1nc2ccc(C(=O)NC(C)Cc3cccs3)cc2[nH]1 (stereo not shown) [CBK282487] | 86.8%
89 | Cc1nc[nH]c1CN(Cc1cccc(F)c1)Cc1ccco1 [CBK282493] | 75.7%
90 | COc1cccc(CN(Cc2ccco2)Cc2[nH]cnc2C)c1 [CBK282495] | 81.4%
91 | COc1cccc(CN(Cc2ccco2)Cc2cncn2C)c1 [CBK282497] | 102%
92 | O=C(Nc1ccc(Oc2cccnc2)cc1)C1CCCN1 (stereo not shown) [CBK282498] | 110%
93 | COc1cc(NC(=O)C2CCCN2)ccc1-n1cccc1 (stereo not shown) [CBK282500] | 85.4%
94 | Cc1n[nH]c(C)c1CNC(=O)C1CCN(Cc2ccc(F)cc2)CC1 [CBK282502] | 92%
